From patent US12157730B2, “Heteroaryl derivative, method for producing same, and pharmaceutical composition comprising same as effective component” (VORONOI INC., priority 2019, dated 2024)

Molecular target: T1, Ba/F3 cell EGFR Exon20 ins NPH (Homo sapiens, UniProt P00533, INS773NPH)
T1 construct: expressed in transfected cells; host or cells: Ba/F3
Assay: Ba/F3 cell proliferation suppression, EGFR Exon20 ins NPH
Assay type: cell-based
Conditions: GI50 class; Ba/F3 cell line with NPH inserted at Exon20 of EGFR; 72 hours
Procedure, shortened: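 Cells (3000–5000/well) plated 24 h before compound, 12-point 3-fold dilutions at 0.3 nM to 50 um final; Ba/F3 lines grown with 5 ng/ml IL-3. Viability by CellTiter-Glo luminescence after 72 h, growth ratio vs control, GI50 from curves; triplicate.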

SMILES	Ba/F3 (NPH) Activity
C=CC(=O)Nc1cc(Nc2cc(N3OCC[C@@H]3c3cccc(Cl)c3F)ncn2)c(OC)cc1N1CCC(N(C)C)CC1 [compound 790, N-(5-((6-((R)-3-(3-chloro-2-fluorophenyl)isoxazolidine-2-yl)pyrimidine-4-yl)amino)-2-(4-(dimethylamino)piperidine-1-yl)-4-methoxyphenyl) acrylamide]	A (GI50 < 50 nM)
C=CC(=O)Nc1cc(Nc2cc(N3OCC[C@H]3Cc3cccnc3)ncn2)c(OC)cc1N1CCC(N2C[C@@H]3C[C@H]2CO3)CC1 [compound 989, N-(2-(4-((1S,4S)-2-oxa-5-azabicyclo [2.2.1]heptane-5-yl)piperidine-1-yl)-4-methoxy-5-((6-((R)-3-(pyridine-3-ylmethyl)isoxazolidine-2-yl)pyrimidine-4-yl)amino)phenyl)acrylamide]	B (50 nM ≤ GI50 < 500 nM)
C=CC(=O)Nc1cc(Nc2cc(N3OCC[C@@H]3c3cccc(Cl)c3Cl)ncn2)c(OC)cc1-n1cnc(C)c1 [compound 527, N-(5-((6-((R)-3-(2,3-dichlorophenyl)isoxazolidine-2-yl)pyrimidine-4-yl)amino)-4-methoxy-2-(4-methyl-1H-imidazole-1-yl)phenyl)acrylamide]	A (GI50 < 50 nM)
C=CC(=O)Nc1cc(Nc2cc(N3OCC[C@@H]3c3c(F)cccc3F)ncn2)c(OC)cc1N1CCC(N2CCN(C3CC3)[C@@H](C)C2)CC1 [Example 136, N-(2-(4-((S)-4-cyclopropyl-3-methylpiperazine-1-yl)piperidine-1-yl)-5-((6-((R)-3-(2,6-difluorophenyl)isoxazolidine-2-yl)pyrimidine-4-yl)amino)-4-methoxyphenyl) acrylamide]	B (50 nM ≤ GI50 < 500 nM)
C=CC(=O)Nc1cc(Nc2cc(N3OCC[C@@H]3c3ccc4ccccc4c3)ncn2)c(OC)cc1N1CCC(N2CCN(C3COC3)CC2)CC1 [Example 200, N-(4-methoxy-5-((6-((R)-3-(naphthalene-2-yl)isoxazolidine-2-yl)pyrimidine-4-yl)amino)-2-(4-(4-(oxetane-3-yl)piperazine-1-yl)piperidine-1-yl)phenyl)acrylamide]	B (50 nM ≤ GI50 < 500 nM)
C=CC(=O)Nc1cc(Nc2cc(N3OCC[C@@H]3c3cc(F)cc(F)c3)ncn2)c(OC)cc1N1C[C@H]2C[C@@H]1CO2 [compound 436, N-(2-((1R,4R)-2-oxa-5-azabicyclo[2.2.1]heptane-5-yl)-5-((6-((R)-3-(3,5-difluorophenyl)isoxazolidine-2-yl)pyrimidine-4-yl)amino)-4-methoxyphenyl) acrylamide]	B (50 nM ≤ GI50 < 500 nM)
C=CC(=O)Nc1cc(Nc2cc(N3OCC[C@@H]3c3cc(F)cc(F)c3)ncn2)c(OC)cc1N1CCC(N2CCN(C3CC3)[C@@H](C)C2)CC1 [Example 110, N-(2-(4-((S)-4-cyclopropyl-3-methylpiperazine-1-yl)piperidine-1-yl)-5-((6-((R)-3-(3,5-difluorophenyl)isoxazolidine-2-yl)pyrimidine-4-yl)amino)-4-methoxyphenyl) acrylamide]	A (GI50 < 50 nM)
C=CC(=O)Nc1cc(Nc2cc(N3OCC[C@@H]3c3ccc(C)nc3)ncn2)c(OC)cc1N1CCN(C2COC2)CC1 [Example 218, N-(4-methoxy-5-((6-((R)-3-(6-methylpyridine-3-yl)isoxazolidine-2-yl)pyrimidine-4-yl)amino)-2-(4-(oxetane-3-yl)piperazine-1-yl)phenyl)acrylamide]	B (50 nM ≤ GI50 < 500 nM)
C=CC(=O)Nc1cc(Nc2cc(N3OCC[C@@H]3c3cccc(OC)c3)ncn2)c(OC)cc1N1CCC(N2CCN(C(C)C)CC2)CC1 [compound 780, N-(2-(4-(4-isopropylpiperazine-1-yl)piperidine-1-yl)-4-methoxy-5-((6-((R)-3-(3-methoxyphenyl)isoxazolidine-2-yl)pyrimidine-4-yl)amino)phenyl)acrylamide]	B (50 nM ≤ GI50 < 500 nM)
C=CC(=O)Nc1cc(Nc2cc(N3OCC[C@@H]3c3ccc(F)cc3F)ncn2)c(OC)cc1N1CCC(N2CCN(CC3CC3)CC2)CC1 [Example 203, N-(2-(4-(4-(cyclopropylmethyl)piperazine-1-yl)piperidine-1-yl)-5-((6-((R)-3-(2,4-difluorophenyl)isoxazolidine-2-yl)pyrimidine-4-yl)amino)-4-methoxyphenyl) acrylamide]	A (GI50 < 50 nM)
C=CC(=O)Nc1cc(Nc2cc(N3OCC[C@@H]3c3cccc(C(F)(F)F)c3)ncn2)c(OC)cc1N1CC[C@@H](N2CCOCC2)C1 [compound 506, N-(4-methoxy-2-((R)-3-morpholinopyrolidine-1-yl)-5-((6-((R)-3-(3-(trifluoromethyl)phenyl)isoxazolidine-2-yl)pyrimidine-4-yl)amino)phenyl)acrylamide]	A (GI50 < 50 nM)
C=CC(=O)Nc1cc(Nc2cc(N3OCC[C@@H]3c3cccc(F)c3)ncn2)c(OC)cc1N1CCC(N(C)C)CC1 [Example 245, N-(2-(4-(dimethylamino)piperidine-1-yl)-5-((6-((R)-3-(3-fluorophenyl)isoxazolidine-2-yl)pyrimidine-4-yl)amino)-4-methoxyphenyl) acrylamide]	A (GI50 < 50 nM)
C=CC(=O)Nc1cc(Nc2cc(N3OCC[C@@H]3c3ccc(Cl)cc3F)ncn2)c(OC)cc1N1CCC(N2CCN(C)CC2)CC1 [compound 454, N-(5-((6-((R)-3-(4-chloro-2-fluorophenyl)isoxazolidine-2-yl)pyrimidine-4-yl)amino)-4-methoxy-2-(4-(4-methylpiperazine-1-yl)piperidine-1-yl)phenyl) acrylamide]	A (GI50 < 50 nM)
C=CC(=O)Nc1cc(Nc2cc(N3OCC[C@@H]3c3ccc(Cl)cc3F)ncn2)c(OC)cc1N1CCC(N2CCOCC2)CC1 [compound 455, N-(5-((6-((R)-3-(4-chloro-2-fluorophenyl)isoxazolidine-2-yl)pyrimidine-4-yl)amino)-4-methoxy-2-(4-morpholinopiperidine-1-yl)phenyl)acrylamide]	A (GI50 < 50 nM)
C=CC(=O)Nc1cc(Nc2cc(N3OCC[C@@H]3c3ccc(Cl)c(Cl)c3F)ncn2)c(OC)cc1N1CCC(N2CCN(C3CCC3)CC2)CC1 [Example 74, N-(2-(4-(4-cyclobutylpiperazine-1-yl)piperidine-1-yl)-5-((6-((R)-3-(3,4-dichloro-2-fluorophenyl)isoxazolidine-2-yl)pyrimidine-4-yl)amino)-4-methoxyphenyl) acrylamide]	B (50 nM ≤ GI50 < 500 nM)
C=CC(=O)Nc1cc(Nc2cc(N3OCC[C@@H]3c3cccc(F)c3Cl)ncn2)c(OC)cc1N1CCC(N2C[C@H]3CCN(C)[C@H]3C2)CC1 [compound 447, N-(5-((6-((R)-3-(2-chloro-3-fluorophenyl)isoxazolidine-2-yl)pyrimidine-4-yl)amino)-4-methoxy-2-(4-((3aR,6aR)-1-methylhexahydropyrrolo [3,4-b]pyrrole-5(1H)-yl)piperidine-1-yl)phenyl)acrylamide]	A (GI50 < 50 nM)

Other lines, results leading:

Ba/F3 (NPH) Activity	SMILES
A (GI50 < 50 nM)	C=CC(=O)Nc1cc(Nc2cc(N3OCC[C@@H]3c3ccc(F)c(F)c3)ncn2)c(OC)cc1N1CC[C@@H](N(C)C)C1 [compound 577, N-(5-((6-((R)-3-(3,4-difluorophenyl)isoxazolidine-2-yl)pyrimidine-4-yl)amino)-2-((R)-3-(dimethylamino)pyrolidine-1-yl)-4-methoxyphenyl) acrylamide]
A (GI50 < 50 nM)	C=CC(=O)Nc1cc(Nc2cc(N3OCC[C@@H]3c3ccc(F)cc3F)ncn2)c(OC)cc1N1CCN(C2COC2)CC1 [compound 383, N-(5-((6-((R)-3-(2,4-difluorophenyl)isoxazolidine-2-yl)pyrimidine-4-yl)amino)-4-methoxy-2-(4-(oxetane-3-yl)piperazine-1-yl)phenyl)acrylamide]
A (GI50 < 50 nM)	C=CC(=O)Nc1cc(Nc2cc(N3OCC[C@@H]3c3cccc(F)c3)ncn2)c(OC)cc1N1CCN(C2COC2)CC1 [compound 792, N-(5-((6-((R)-3-(3-fluorophenyl)isoxazolidine-2-yl)pyrimidine-4-yl)amino)-4-methoxy-2-(4-(oxetane-3-yl)piperazine-1-yl)phenyl) acrylamide]
B (50 nM ≤ GI50 < 500 nM)	C=CC(=O)Nc1cc(Nc2cc(N3OCC[C@@H]3c3ccc(F)c(F)c3)ncn2)c(OC)cc1N1CCC(N2C[C@@H]3C[C@H]2CO3)CC1 [compound 497, N-(2-(4-((1S,4S)-2-oxa-5-azabicyclo[2.2.1]heptane-5-yl)piperidine-1-yl)-5-((6-((R)-3-(3,4-difluorophenyl)isoxazolidine-2-yl)pyrimidine-4-yl)amino)-4-methoxyphenyl) acrylamide]
A (GI50 < 50 nM)	C=CC(=O)Nc1cc(Nc2cc(N3OCC[C@@H]3c3cccc(F)c3)ncn2)c(OC)cc1N(C)CCOC [compound 838, N-(5-((6-((R)-3-(3-fluorophenyl)isoxazolidine-2-yl)pyrimidine-4-yl)amino)-4-methoxy-2-((2-methoxyethyl)(methyl)amino)phenyl) acrylamide]
B (50 nM ≤ GI50 < 500 nM)	C#Cc1cccc([C@H]2CCON2c2cc(Nc3cc(NC(=O)C=C)c(N4CCC(N5CCN(CC)CC5)CC4)cc3OC)ncn2)c1 [compound 652, N-(2-(4-(4-ethylpiperazine-1-yl)piperidine-1-yl)-5-((6-((R)-3-(3-ethynylphenyl)isoxazolidine-2-yl)pyrimidine-4-yl)amino)-4-methoxyphenyl) acrylamide]
C (500 nM ≤ GI50 < 5000 nM)	C=CC(=O)Nc1cc(Nc2cc(N3OCC[C@@H]3c3ccc(C)nc3)ncn2)c(OC)cc1N1CCN(C2CC2)CC1 [Example 46, N-(2-(4-cyclopropylpiperazine-1-yl)-4-methoxy-5-((6-((R)-3-(6-methylpyridine-3-yl)isoxazolidine-2-yl)pyrimidine-4-yl)amino)phenyl) acrylamide]
